According to US12302903B2, “Oxazepinone derivative, agricultural/horticultural insecticide containing the same, and method for using the same” (priority 2019, dated 2025):

The compounds below were run on zebrafish embryo (assay: Teratogenicity test using zebrafish embryo). Details: zebrafish embryos exposed from 6 hours after fertilization, cultured at 28° C. for five days, 0.1% dimethyl sulfoxide.
Type: in vivo
Procedure: Test Example 4. Teratogenicity Test Using Zebrafish Embryo
Fertilized eggs obtained by mating zebrafish were cultured in a medium (0.3× Danieau's solution) at 28° C. until 6 hours after fertilization. Thereafter, the embryo was transferred to a medium into which the compound expressed by General Formula (1) according to the present invention dissolved in dimethyl sulfoxide was added, and cultured at 28° C. for five days. The concentration of dimethyl sulfoxide in the medium was 0.1%. 12 embryos were tested in each test concentration of the present invention.
Observation sites: notochord, tail, somite, eye, otolith, jaw, heart, blood vessel, abdomen, fin, etc.
From the results of these observations, the presence or absence of teratogenicity risk of the compound expressed by General Formula (1) according to the present invention and six compounds (Compound Nos. 4-10, 1-67, 1-1, 8-125, and 8-22, and a compound encompassed by the claims of Patent Literature 1 (Comparative Compound 4)) disclosed in the aforementioned Patent Literature 1 as the comparative compounds was determined.
It is noted that the teratogenicity test using zebrafish embryo is known to have good high predictivity to the teratogenicity test using the mammals (Reference Literature: Reproductive Toxicology 2012, (33), 155-164).

Row | SMILES | Teratogenicity risk
1 | CN1C(=O)c2nn(-c3cccnc3)cc2Oc2ncc(C(F)(F)F)cc21 [Comparative Compound 1] | Yes
2 | COCN1C(=O)c2nn(-c3cccnc3)cc2Oc2ccccc21 [Comparative Compound 2] | Yes
3 | O=C1Nc2ccccc2Oc2cn(-c3cccnc3)nc21 [Comparative Compound 3] | Yes
4 | COCN1C(=O)c2nn(-c3cccnc3)cc2Oc2cc(OC(F)(F)F)ccc21 [Comparative Compound 4] | Yes
5 | CN1C(=O)c2nn(-c3cccnc3)cc2Oc2cc(OC(F)(F)F)ccc21 [Comparative Compound 5] | Yes
6 | COCN1C(=O)c2nn(-c3cccnc3)cc2Oc2c(F)cccc21 [Comparative Compound 6] | Yes
7 | COCN1C(=O)c2nn(-c3cccnc3)cc2Oc2ncccc21 [Compound No. 1-1, 9-(methoxymethyl)-2-(pyridin-3-yl)-2H-pyrazolo[3,4-f]pyrido[2,3-b][1,4]oxazepine-10(9H)-one] | No

The compounds below were run on Small Brown Planthopper (Laodelphax Striatellus) (assay: Test of insecticidal efficacy against Small Brown Planthopper (rice seedling dip)). Details: 192 h, read-out: corrected insect mortality judgement against small brown planthopper.
Type: in vivo
Procedure: Test Example 2. Test of Insecticidal Efficacy Against Small Brown Planthopper (Laodelphax Striatellus)
The compound or salt thereof expressed by General Formula (1) according to the present invention was dispersed in water and the dispersion was diluted to 50 ppm in the form of a reagent, after which rice plants raised from seeds (variety: Nipponbare) were soaked in the reagent for 30 seconds and dried under wind, and then placed in glass test tubes, each of which was inoculated with 10 third-instar larvae of small brown planthoppers and sealed with cotton, and eight days after the inoculation, the number of live insects and that of dead insects were examined and the corrected insect mortality was calculated based on the formula below, and judgement was made according to the criteria below.
[formula] [formula] Criteria A—Corrected insect mortality: 100% B—Corrected insect mortality: 99% to 90% C—Corrected insect mortality: 89% to 80% D—Corrected insect mortality: 79% to 50%

Row | SMILES | mortality at 50 ppm [%]
8 | COCN1C(=O)c2nn(-c3cccnc3)cc2Oc2ncccc21 [Compound No. 1-1, 9-(methoxymethyl)-2-(pyridin-3-yl)-2H-pyrazolo[3,4-f]pyrido[2,3-b][1,4]oxazepine-10(9H)-one] | 100
